What was measured:
EonuCSP 6-1 = EonuCSP 6-1 (Empoasca onukii, UniProt A0A343WH12); assay: Competitive fluorescence binding assay (1-NPN probe) with recombinant EonuCSP6-1
Experimental: (§1) N-phenyl-1-naphthylamine (1-NPN) was used as the fluorescent probe. The excitation wavelength in the fluorescence spectrometer was set to 337 nm, which was the results of an optimization that we achieved in lab. The scanning wavelength was 420–600 nm.
(§2) The tested chemicals were dissolved in methanol in preparation for 1 mM stock solution. […] We determined the binding constants of 1-NPN by Scatchard formula. […] The binding affinities of the competitors were evaluated from the corresponding IC50 according to the equation: K i = IC50/(1 + [1-NPN]/K1-NPN).

EonuCSP4 = EonuCSP4 (Empoasca onukii, UniProt A0A343WGZ9); assay: Competitive fluorescence binding assay (1-NPN probe) with recombinant EonuCSP4
Sequence of EonuCSP4 (A0A343WGZ9 entry or part of it): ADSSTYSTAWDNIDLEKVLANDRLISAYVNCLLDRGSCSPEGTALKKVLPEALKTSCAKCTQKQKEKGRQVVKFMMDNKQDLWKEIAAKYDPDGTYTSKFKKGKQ
Experimental: as §1, §2

EonuCSP6-2 = EonuCSP6-2 (Empoasca onukii, UniProt A0A343WH13); assay: Competitive fluorescence binding assay (1-NPN probe) with recombinant EonuCSP6-2
Sequence of EonuCSP6-2 (A0A343WH13 entry or part of it): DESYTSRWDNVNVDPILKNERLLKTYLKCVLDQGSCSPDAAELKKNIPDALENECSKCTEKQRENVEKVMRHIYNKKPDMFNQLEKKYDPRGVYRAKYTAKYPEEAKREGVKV
Experimental: as §1, §2

E. onukii adults = assay: Y-tube olfactometer assay (behavioral response); type: in vivo, Empoasca onukii; conditions: 20 μL of 10 μg/μL in methanol, 90 adults per volatile
Experimental: We use a Y-tube olfactometer (1.5 cm in diameter, arms with 8 cm length, and a stem with 18 cm length) to detect the behavioral response of E. onukii to volatiles. The incoming air to the tube was firstly filtered using active carbon and then humidified with the ultrapure water. The air through the arms was blown at a constant flow ([…]). A total of 20 μL tested volatile oil (10 μg/μL in methanol (HPLC)) pipetted onto 1 cm diameter filter paper. This filter paper was placed in the chamber, which connected to one arm of the Y-tube olfactometer. As control, the same filter paper treated with 20 μL of methanol was placed in the chamber connected to another arm of the Y-tube. This experiment was performed in the dark room, which employed a light-emitting diode as the light source. Each adult was introduced into the middle of the stem of the Y-tube and the individuals that made a choice within 8 min were recorded. Individuals moving toward the odorant source for half of the arm distance and stayed for 1 minute were recorded as odorant choice. For each volatile component, 90 adult were used. After 10 insects were tested, the Y-tube olfactometer was washed with 75% ethanol and air-dried, and tested volatiles were placed in another arm for the subsequent tests.

Sequence of EonuCSP 6-1 (A0A343WH12 entry or part of it): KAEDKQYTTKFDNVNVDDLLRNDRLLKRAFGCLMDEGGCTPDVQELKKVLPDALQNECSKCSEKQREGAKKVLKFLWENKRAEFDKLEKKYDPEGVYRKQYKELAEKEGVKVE

## c1ccc(Nc2cccc3ccccc23)cc1 [1-NPN, N-phenyl-1-naphthylamine]
EonuCSP 6-1
  Kd: 12.5 µM
EonuCSP4
  Kd: 11 µM
EonuCSP6-2
  Kd: 10.2 µM

## O=Cc1ccccc1 [Benzaldehyde]
EonuCSP 6-1
  IC50: > 20 µM
E. onukii adults
  behavioral response of E. onukii adults (choice versus methanol control): significant preference

## CC/C=C\CCOC(=O)CCCC [Cis-3-Hexenyl n-valerate]
E. onukii adults
  behavioral response of E. onukii adults (choice versus methanol control): significant preference

Reference: paper PMC9845707, “Involvement of three chemosensory proteins in perception of host plant volatiles in the tea green leafhopper, Empoasca onukii” (Frontiers in Physiology, 2023)
